Where two headings read alike, the source gives them in different places.
Tested on: OR6 cells harboring full-length genotype 1b HCV replicon ORN/C-5B/KE (HCV RNA replication)
Assay: microbe, parasite or virus in culture
Assay type: cell-based, Hepatitis C virus (strain HCV—O
Conditions: 48 hours; for antiviral activity (in words): OR6 full-length replicon
From the text: (§1) HCV Replicon System-Secondary Assays. For validation, OR6 cells stably harboring the full-length genotype 1 replicon, ORN/C-5B/KE9 were used to examine compound activity in a more authentic viral polyprotein context. This replicon was derived from the 1B-2 strain (strain HCV—O, genotype 1b), in which the Renilla luciferase gene is introduced as a fusion protein with neomycin to facilitate the monitoring of HCV replication. This construct contains a tissue culture adaptive mutation in the NS3 region. Cells were cultured in an identical manner to the Huh7/Rep-Feo cells.
Secondary Assays-Hit Validation. Several hits from primary HTS, as well as functionally related compounds, were purchased from Sigma (St. Louis, Mo.), Calbiochem (San Diego, Calif.), and Microsource (Gaylordsville, Conn.). […] Ten mM of stock solutions of the individual compounds to be tested was prepared in the appropriate solvent (DMSO, ethanol, or H2O, according to the manufacturer's information) and stored at −20° C. Cells were seeded into 96-well plates at a density of 2000 cells/well in 100 μL of medium. The cells were incubated for 24 hours at 37° C. to obtain the optimal level of adherence. Solutions of candidate hit compounds were added to wells to achieve final concentrations of 0.1, 1, 10, 50, and 100 μM. The final concentration of DMSO or ethanol in every well was 1% or less by volume. Mock solutions were used as a negative control. PEG-IFN and ribavirin were used as positive controls at various concentrations, alone and in combination. The plates were then incubated at 37° C. with 5% CO2 for 48 hours before they were analyzed. Luminescent signal was generated using the Renilla luciferase assay kit (Promega) according to the manufacturer's instructions. Signal was then detected using a LumiCount (Packard BioScience Company) luminometer. Cell viability was assessed using CellTiter-Glo (Promega), following the manufacturer's instructions. All experiments were performed in triplicate.
Secondary Assays-Data Analysis. Values were presented as a percentage of mock treated control, which was arbitrarily set at 100%. Data were expressed as the mean (±) SD. […] Synergy calculations were performed using CalcuSyn (Biosoft; Cambridge, England).
as §1, with “System—Secondary Assays:” for “System-Secondary Assays.”, “For replicon” for “For”, “ORN/C-5B/KE” for “ORN/C-5B/KE9”, “(Burke J. Am. Chem. Soc. (2004) 126:14095-14104).” for “to examine compound activity in a more authentic viral polyprotein context.”, “the Neomycin resistance cassette” for “neomycin”
Secondary Assays—Hit Validation: 10 mM of stock solutions of the individual compounds to be tested were prepared in DMSO and stored at −20° C. Cells were seeded into 96-well plates at a density of 2,000 cells/well in 100 μl of medium. The cells were incubated for 24 hours at 37° C. to obtain the optimal level of adherence. Solutions of candidate hit compounds were added to wells to achieve varying final concentrations between 0.01 and 100 μM. The final concentration of DMSO or ethanol in every well was 1% or less by volume. Mock solutions were used as a negative control. Peginterferon-alfa-2b (PEG-Intron; Schering Corp.; Kenilworth, N.J.) and ribavirin (Sigma; St. Louis, Mo.) were used as positive controls at various concentrations, alone and in combination. The plates were then incubated at 37° C. with 5% CO2 for 48 hours before they were analyzed. Luminescent signal was generated using the Renilla luciferase assay kit (Promega; Madison, Wis.) according to the manufacturer's instructions. Signal was then detected using a LumiCount™ (Packard BioScience Company; Downers Grove, Ill.) luminometer.

[1] = Hepatitis C virus, OR6, 48 h, read-out: IC50 (HCV RNA replication, luciferase), OR6 full-length genotype 1b replicon

Structure (SMILES) | IC50 [1] [nM] | IC50 (read-out: IC50 (HCV RNA replication, luciferase), OR6 full-length genotype 1b replicon) [nM] | antiviral activity (in words)
CC(=O)OC[C@H]1O[C@H](CCO/N=C2/[C@H]3CCn4c(=O)n(-c5ccccc5)c(=O)n4[C@H]3[C@H](O)[C@@H]3O[C@H]23)C=C[C@@H]1OC(C)=O [BUCMLD-B10A3] | > 500 | < 1000 | –
Cc1cc2c(nc1C)CCCN2CC(C)O/N=C1/[C@H]2CCn3c(=O)n(-c4ccccc4)c(=O)n3[C@H]2[C@H](O)[C@@H]2O[C@H]12 (some centres unmarked) [BUCMLD-B10A5] | ~1000 | – | –
Cc1cc(C)c(-c2cc([C@H](C)O/N=C3/[C@H]4CCn5c(=O)n(-c6ccccc6)c(=O)n5[C@H]4[C@H](O)[C@@H]4O[C@H]34)on2)c(C)c1 [BUCMLD-B10A11] | < 500 | – | –
O=C1C2C=C(I)C(CC2OCCCCO)[C@@]12CO2 (some centres unmarked) [SM_A5B3_2P141] | 10000 to 50000 | – | modest antiviral activity
O=C1C2(CO)C=C(Br)C(CC2c2ccccc2)[C@@]12CO2 (some centres unmarked) [SM_A6B5_2P100] | ~7000 | – | –
COc1cc2c(cc1OC)-c1c/c(=N\c3c(C)cc(C)cc3C)n(C)c(=O)n1CC2 [trequinsin, reference compound] | – | – | antiviral activity at the lower concentrations of 1 and 10 μM
